{
  "source": "ChEMBL document CHEMBL5705898",
  "about": "(Proc Natl Acad Sci U S A, 2014)",
  "key": {"[1]": {"molecular_target": "T1, Histone-lysine N-methyltransferase SETD7 (Homo sapiens, UniProt Q8WTS6)", "T1 sequence (Q8WTS6 whole entry)": "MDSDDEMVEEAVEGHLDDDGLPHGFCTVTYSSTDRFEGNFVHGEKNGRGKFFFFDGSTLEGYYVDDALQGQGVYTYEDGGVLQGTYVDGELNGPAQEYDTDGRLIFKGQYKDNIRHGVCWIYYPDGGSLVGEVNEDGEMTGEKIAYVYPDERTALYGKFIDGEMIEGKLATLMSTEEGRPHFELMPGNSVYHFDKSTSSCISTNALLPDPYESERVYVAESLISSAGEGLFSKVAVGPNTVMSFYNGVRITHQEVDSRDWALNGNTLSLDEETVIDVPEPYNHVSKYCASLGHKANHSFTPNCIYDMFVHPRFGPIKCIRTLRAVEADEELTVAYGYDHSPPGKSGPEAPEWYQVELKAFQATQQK", "test": "Inhibition of full length human SETD7 (1 to 366 residues) expressed in Escherichia coli BL21 (DE3) V2R-pRARE assessed as apparent inhibition constant using biotinylated H3 (1-25) peptide as substrate incubated for 1 hrs in presence of 3H-SAM by morrison equation", "conditions": "read-out: Ki(app)"}, "[2]": {"molecular_target": "T1, Histone-lysine N-methyltransferase SETD7", "test": "Binding affinity to biotinylated SETD7 (unknown origin) assessed as dissociation constant in presence of SAM in flow and wash buffer by SPR analysis"}, "[3]": {"test": "Stability of compound in cell media by MS-LC analysis", "format": "physicochemical"}, "[4]": {"molecular_target": "Adenosine receptor A3 (Homo sapiens) (UniProt P0DMS8)", "sequence (P0DMS8 whole entry)": "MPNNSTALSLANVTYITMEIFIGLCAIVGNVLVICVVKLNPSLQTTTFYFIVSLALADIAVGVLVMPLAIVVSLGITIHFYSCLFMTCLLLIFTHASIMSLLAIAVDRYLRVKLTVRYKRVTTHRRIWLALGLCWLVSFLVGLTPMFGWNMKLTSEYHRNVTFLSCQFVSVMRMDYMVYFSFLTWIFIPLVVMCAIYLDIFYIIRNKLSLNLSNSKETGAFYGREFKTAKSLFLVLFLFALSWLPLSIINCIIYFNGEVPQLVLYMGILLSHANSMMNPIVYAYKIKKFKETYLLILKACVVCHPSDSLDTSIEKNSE", "test": "Inhibition of human A3 receptor at 10 uM relative to control"}, "[5]": {"molecular_target": "Bombesin receptor subtype-3 (Homo sapiens) (UniProt P32247)", "test": "Inhibition of human BB3 receptor at 10 uM relative to control"}, "[6]": {"molecular_target": "B2 bradykinin receptor (Homo sapiens) (UniProt P30411)", "test": "Inhibition of human B2 receptor at 10 uM relative to control"}, "[7]": {"molecular_target": "D(1A) dopamine receptor (Homo sapiens) (UniProt P21728)", "sequence (P21728 whole entry)": "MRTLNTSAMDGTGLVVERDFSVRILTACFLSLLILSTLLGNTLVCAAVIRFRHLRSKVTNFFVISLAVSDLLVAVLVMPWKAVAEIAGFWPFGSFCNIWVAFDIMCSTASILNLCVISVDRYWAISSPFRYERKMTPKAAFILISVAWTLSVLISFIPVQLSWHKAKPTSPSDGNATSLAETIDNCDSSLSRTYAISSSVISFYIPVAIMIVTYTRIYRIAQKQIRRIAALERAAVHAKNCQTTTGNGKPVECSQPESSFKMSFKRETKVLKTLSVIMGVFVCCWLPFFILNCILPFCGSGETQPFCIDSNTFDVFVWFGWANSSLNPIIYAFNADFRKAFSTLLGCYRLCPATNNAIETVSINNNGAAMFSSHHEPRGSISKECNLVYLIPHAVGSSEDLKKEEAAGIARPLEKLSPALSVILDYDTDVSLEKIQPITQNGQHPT", "test": "Inhibition of human D1 receptor at 10 uM relative to control"}, "[8]": {"molecular_target": "Glutamate receptor ionotropic AMPA (Homo sapiens) (UniProt P48058+P42263+P42262+P42261)", "test": "Inhibition of human AMPA receptor at 10 uM relative to control", "format": "protein-complex assay"}, "[9]": {"molecular_target": "Cysteinyl leukotriene receptor 1 (Homo sapiens) (UniProt Q9Y271)", "sequence (Q9Y271 whole entry)": "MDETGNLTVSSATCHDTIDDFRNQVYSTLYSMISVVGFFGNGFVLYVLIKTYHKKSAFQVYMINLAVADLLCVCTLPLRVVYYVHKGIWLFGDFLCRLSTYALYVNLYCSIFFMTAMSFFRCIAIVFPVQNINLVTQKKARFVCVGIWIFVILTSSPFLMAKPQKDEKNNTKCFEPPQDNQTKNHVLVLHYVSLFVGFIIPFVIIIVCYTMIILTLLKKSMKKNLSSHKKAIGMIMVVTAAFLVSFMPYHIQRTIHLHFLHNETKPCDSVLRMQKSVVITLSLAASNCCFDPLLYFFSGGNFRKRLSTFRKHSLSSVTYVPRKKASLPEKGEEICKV", "test": "Inhibition of human CysLT1 at 10 uM relative to control"}, "[10]": {"molecular_target": "Melanocyte-stimulating hormone receptor (Homo sapiens) (UniProt Q01726)", "test": "Inhibition of MC1 receptor (unknown origin) at 10 uM relative to control"}, "[11]": {"molecular_target": "Melanocortin receptor 3 (Homo sapiens) (UniProt P41968)", "test": "Inhibition of human MC3 receptor at 10 uM relative to control"}, "[12]": {"molecular_target": "MAO-A (Amine oxidase [flavin-containing] A) (Homo sapiens, UniProt P21397)", "test": "Inhibition of MAO-A (unknown origin) at 10 uM relative to control"}, "[13]": {"molecular_target": "Muscarinic acetylcholine receptor M2 (Homo sapiens) (UniProt P08172)", "test": "Inhibition of human M2 receptor at 10 uM relative to control"}, "[14]": {"molecular_target": "Neuronal acetylcholine receptor; alpha4/beta2 (Homo sapiens) (UniProt P17787+P43681)", "test": "Inhibition of human N neuronal alpha4 beta2 receptor at 10 uM relative to control", "format": "protein-complex assay"}, "[15]": {"molecular_target": "Prostaglandin F2-alpha receptor (Homo sapiens) (UniProt P43088)", "sequence (P43088 whole entry)": "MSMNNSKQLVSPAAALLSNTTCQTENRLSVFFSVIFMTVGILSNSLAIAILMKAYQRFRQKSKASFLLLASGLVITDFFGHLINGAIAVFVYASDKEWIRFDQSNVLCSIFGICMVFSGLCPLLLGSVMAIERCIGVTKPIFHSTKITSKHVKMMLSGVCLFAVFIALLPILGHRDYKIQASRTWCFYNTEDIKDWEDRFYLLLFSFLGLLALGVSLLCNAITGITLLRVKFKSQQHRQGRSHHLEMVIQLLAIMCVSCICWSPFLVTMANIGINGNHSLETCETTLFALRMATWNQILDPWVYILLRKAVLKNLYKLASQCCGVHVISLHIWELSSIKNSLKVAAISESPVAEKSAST", "test": "Inhibition of human FP receptor at 10 uM relative to control"}, "[16]": {"molecular_target": "5-hydroxytryptamine receptor 1D (Homo sapiens) (UniProt P28221)", "sequence (P28221 whole entry)": "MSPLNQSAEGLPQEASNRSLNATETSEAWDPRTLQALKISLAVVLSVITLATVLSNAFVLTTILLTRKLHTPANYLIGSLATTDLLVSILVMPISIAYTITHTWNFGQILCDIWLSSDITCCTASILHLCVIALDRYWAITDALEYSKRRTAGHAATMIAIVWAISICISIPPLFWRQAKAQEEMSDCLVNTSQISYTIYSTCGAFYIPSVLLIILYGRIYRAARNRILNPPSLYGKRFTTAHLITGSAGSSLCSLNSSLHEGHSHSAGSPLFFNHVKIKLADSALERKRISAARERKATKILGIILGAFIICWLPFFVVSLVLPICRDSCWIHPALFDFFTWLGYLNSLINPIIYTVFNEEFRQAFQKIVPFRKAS", "test": "Inhibition of 5-HT1D receptor (unknown origin) at 10 uM relative to control"}, "[17]": {"molecular_target": "5-hydroxytryptamine receptor 2B (Homo sapiens) (UniProt P41595)", "test": "Inhibition of human 5-HT2B receptor at 10 uM relative to control"}, "[18]": {"molecular_target": "5-hydroxytryptamine receptor 7 (Homo sapiens) (UniProt P34969)", "sequence (P34969 whole entry)": "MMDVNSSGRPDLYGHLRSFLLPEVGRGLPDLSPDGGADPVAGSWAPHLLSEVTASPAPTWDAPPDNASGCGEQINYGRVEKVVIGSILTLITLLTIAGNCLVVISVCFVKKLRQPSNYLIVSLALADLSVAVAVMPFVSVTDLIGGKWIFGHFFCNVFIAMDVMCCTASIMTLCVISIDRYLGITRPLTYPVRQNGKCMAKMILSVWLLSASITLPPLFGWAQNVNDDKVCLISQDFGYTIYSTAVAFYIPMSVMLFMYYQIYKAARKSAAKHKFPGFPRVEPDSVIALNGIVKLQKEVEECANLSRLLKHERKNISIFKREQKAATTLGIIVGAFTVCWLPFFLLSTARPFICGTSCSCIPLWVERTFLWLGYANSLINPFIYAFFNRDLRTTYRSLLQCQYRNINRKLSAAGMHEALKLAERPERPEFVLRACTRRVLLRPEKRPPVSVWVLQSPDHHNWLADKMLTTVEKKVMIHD", "test": "Inhibition of human 5-HT7 receptor at 10 uM relative to control"}, "[19]": {"molecular_target": "Somatostatin receptor type 1 (Homo sapiens) (UniProt P30872)", "sequence (P30872 whole entry)": "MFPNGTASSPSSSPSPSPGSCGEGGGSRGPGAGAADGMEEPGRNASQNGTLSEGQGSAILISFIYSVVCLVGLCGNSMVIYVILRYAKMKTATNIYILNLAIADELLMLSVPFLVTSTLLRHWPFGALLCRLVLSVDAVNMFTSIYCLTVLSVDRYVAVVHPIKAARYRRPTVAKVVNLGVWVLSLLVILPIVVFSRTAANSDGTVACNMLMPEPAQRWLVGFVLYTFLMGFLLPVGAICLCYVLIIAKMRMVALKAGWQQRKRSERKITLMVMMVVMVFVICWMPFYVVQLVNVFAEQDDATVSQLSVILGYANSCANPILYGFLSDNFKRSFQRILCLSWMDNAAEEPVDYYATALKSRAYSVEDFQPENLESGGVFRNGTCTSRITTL", "test": "Inhibition of human sst1 at 10 uM relative to control"}, "Homo sapiens [20]": {"organism": "Homo sapiens", "test": "Inhibition of human TR at 10 uM relative to control"}, "Homo sapiens [21]": {"organism": "Homo sapiens", "test": "Inhibition of Ca2+ channel L, dihydropyridine site (unknown origin) at 10 uM relative to control"}, "Homo sapiens [22]": {"organism": "Homo sapiens", "test": "Inhibition of Ca2+ channel L, verapamil site (unknown origin) at 10 uM relative to control"}, "Homo sapiens [23]": {"organism": "Homo sapiens", "test": "Inhibition of SKCa channel (unknown origin) at 10 uM relative to control"}, "Homo sapiens [24]": {"organism": "Homo sapiens", "test": "Inhibition of Na+ channel site 2 (unknown origin) at 10 uM relative to control"}, "Homo sapiens [25]": {"organism": "Homo sapiens", "test": "Inhibition of GABA-gated Cl- channel (unknown origin) at 10 uM relative to control"}, "[26]": {"molecular_target": "Sodium-dependent noradrenaline transporter (Homo sapiens) (UniProt P23975)", "test": "Inhibition of human norepinephrine transporter at 10 uM relative to control"}, "Homo sapiens [27]": {"organism": "Homo sapiens", "test": "Inhibition of PDE6 (unknown origin) at 10 uM relative to control"}, "Caspase-3 (Homo sapiens)": {"molecular_target": "Caspase-3 (Homo sapiens) (UniProt P42574)", "sequence (P42574 29-175 limits assumed)": "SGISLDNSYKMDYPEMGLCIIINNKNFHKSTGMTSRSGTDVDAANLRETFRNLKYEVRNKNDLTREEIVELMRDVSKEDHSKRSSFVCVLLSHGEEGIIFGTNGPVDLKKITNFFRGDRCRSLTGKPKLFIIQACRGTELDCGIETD", "sequence (P42574 176-277 limits assumed)": "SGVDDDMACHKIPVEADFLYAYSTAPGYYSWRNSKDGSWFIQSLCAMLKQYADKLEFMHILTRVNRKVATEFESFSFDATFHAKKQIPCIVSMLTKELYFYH", "test": "Inhibition of human caspase-3 at 10 uM relative to control"}, "[28]": {"molecular_target": "Human immunodeficiency virus type 1 protease (Human immunodeficiency virus 1) (UniProt Q72874)", "test": "Inhibition of HIV-1 protease at 10 uM relative to control"}, "[29]": {"molecular_target": "72 kDa type IV collagenase (Homo sapiens) (UniProt P08253)", "test": "Inhibition of human MMP-2 at 10 uM relative to control"}, "[30]": {"molecular_target": "Insulin receptor (Homo sapiens) (UniProt P06213)", "sequence (P06213 28-758 limits assumed)": "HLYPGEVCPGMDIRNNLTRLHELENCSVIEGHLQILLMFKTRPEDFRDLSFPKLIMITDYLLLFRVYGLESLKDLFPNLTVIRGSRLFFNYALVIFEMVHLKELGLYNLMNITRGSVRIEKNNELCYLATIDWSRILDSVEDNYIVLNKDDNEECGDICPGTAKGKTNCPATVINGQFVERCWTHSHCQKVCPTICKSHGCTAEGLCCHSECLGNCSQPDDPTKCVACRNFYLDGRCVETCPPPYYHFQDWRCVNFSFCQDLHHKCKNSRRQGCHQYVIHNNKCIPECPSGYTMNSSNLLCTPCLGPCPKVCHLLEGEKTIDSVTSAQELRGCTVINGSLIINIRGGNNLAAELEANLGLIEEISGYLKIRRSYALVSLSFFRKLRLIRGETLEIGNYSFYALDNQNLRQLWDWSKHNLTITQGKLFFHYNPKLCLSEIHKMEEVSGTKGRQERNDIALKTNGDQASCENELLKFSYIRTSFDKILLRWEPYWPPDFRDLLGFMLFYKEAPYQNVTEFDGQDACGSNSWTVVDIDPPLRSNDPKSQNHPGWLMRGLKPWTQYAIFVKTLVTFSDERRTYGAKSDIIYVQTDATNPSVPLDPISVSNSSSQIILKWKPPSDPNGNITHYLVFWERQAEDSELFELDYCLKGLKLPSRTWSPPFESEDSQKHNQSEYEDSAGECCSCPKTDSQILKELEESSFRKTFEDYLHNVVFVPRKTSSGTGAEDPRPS", "sequence (P06213 763-1382 limits assumed)": "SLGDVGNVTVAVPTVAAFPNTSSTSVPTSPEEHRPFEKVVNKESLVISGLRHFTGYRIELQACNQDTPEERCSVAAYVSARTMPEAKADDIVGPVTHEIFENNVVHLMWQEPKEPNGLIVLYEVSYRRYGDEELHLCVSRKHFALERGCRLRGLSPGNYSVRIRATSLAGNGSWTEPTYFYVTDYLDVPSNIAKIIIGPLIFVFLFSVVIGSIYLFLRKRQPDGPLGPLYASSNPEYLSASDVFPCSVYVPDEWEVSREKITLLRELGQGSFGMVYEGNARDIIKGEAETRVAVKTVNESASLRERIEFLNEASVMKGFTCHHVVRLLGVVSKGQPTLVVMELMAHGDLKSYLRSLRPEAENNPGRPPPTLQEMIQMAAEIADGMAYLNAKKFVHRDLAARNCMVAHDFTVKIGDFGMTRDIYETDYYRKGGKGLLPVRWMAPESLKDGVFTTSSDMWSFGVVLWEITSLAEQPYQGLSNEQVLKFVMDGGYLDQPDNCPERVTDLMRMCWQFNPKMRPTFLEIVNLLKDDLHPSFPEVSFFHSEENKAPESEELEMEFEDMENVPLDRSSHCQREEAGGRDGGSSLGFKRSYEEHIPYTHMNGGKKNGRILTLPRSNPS", "test": "Inhibition of human IRK (InsR) at 10 uM relative to control"}, "[31]": {"molecular_target": "Mitogen-activated protein kinase 14 (Homo sapiens) (UniProt Q16539)", "test": "Inhibition of human P38alpha kinase at 10 uM relative to control"}, "[32]": {"molecular_target": "Tyrosine-protein kinase ZAP-70 (Homo sapiens) (UniProt P43403)", "sequence (P43403 whole entry)": "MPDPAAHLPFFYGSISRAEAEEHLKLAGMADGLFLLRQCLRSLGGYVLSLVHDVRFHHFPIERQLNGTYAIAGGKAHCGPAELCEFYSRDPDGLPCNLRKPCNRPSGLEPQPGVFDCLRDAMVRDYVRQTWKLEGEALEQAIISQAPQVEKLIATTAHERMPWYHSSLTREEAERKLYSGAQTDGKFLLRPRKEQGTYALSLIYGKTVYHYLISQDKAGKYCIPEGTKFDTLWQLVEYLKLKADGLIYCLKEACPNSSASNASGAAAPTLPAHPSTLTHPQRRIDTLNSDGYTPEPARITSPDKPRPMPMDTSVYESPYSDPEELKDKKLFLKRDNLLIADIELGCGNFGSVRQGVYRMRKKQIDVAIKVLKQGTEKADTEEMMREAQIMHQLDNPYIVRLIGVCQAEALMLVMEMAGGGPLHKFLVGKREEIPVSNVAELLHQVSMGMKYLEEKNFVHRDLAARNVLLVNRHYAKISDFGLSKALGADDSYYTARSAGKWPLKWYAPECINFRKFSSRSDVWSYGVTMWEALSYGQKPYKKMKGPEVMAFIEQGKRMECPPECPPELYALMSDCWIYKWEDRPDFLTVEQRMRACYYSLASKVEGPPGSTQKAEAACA", "test": "Inhibition of human ZAP70 kinase at 10 uM relative to control"}, "[33]": {"molecular_target": "Catechol O-methyltransferase (Homo sapiens) (UniProt P21964)", "test": "Inhibition of COMT (unknown origin) at 10 uM relative to control"}, "[34]": {"molecular_target": "xanthine oxidase (Xanthine dehydrogenase/oxidase) (Homo sapiens, UniProt P47989)", "test": "Inhibition of xanthine oxidase (unknown origin) at 10 uM relative to control"}, "Homo sapiens [35]": {"organism": "Homo sapiens", "test": "Inhibition of Na+/K+ ATPase (unknown origin) at 10 uM relative to control"}, "[36]": {"molecular_target": "Alpha-2B adrenergic receptor (Homo sapiens, UniProt P18089)", "test": "Inhibition of human alpha 2B receptor"}, "[37]": {"molecular_target": "Bombesin receptor subtype-3 (Homo sapiens, UniProt P32247)", "test": "Inhibition of human BB3 receptor"}, "[38]": {"molecular_target": "Histone-lysine N-methyltransferase SETD7 (Homo sapiens) (UniProt Q8WTS6)", "conditions": "HEK293, dose 10.0 µM"}},
  "data": [
    {"smiles": "O=C([C@@H](Cc1cccc(C(F)(F)F)c1)NS(=O)(=O)c1cc(F)c2c(c1)CCNC2)N1CCCC1", "values": [
      {"measurement": "Ki", "setting": "[1]", "value": 0.33, "unit": "nM"},
      {"measurement": "Kd", "setting": "[2]", "value": 4.2, "unit": "nM"},
      {"measurement": "Stability", "setting": "[3]", "value": "Stable"},
      {"measurement": "inhibition", "setting": "[4]", "value": 12, "unit": "%"},
      {"measurement": "inhibition", "setting": "[5]", "value": 61, "unit": "%"},
      {"measurement": "inhibition", "setting": "[6]", "value": 0, "unit": "%"},
      {"measurement": "inhibition", "setting": "[7]", "value": 0, "unit": "%"},
      {"measurement": "inhibition", "setting": "[8]", "value": 2, "unit": "%"},
      {"measurement": "inhibition", "setting": "[9]", "value": -1, "unit": "%"},
      {"measurement": "inhibition", "setting": "[10]", "value": 16, "unit": "%"},
      {"measurement": "inhibition", "setting": "[11]", "value": 7, "unit": "%"},
      {"measurement": "inhibition at 10 µM", "setting": "[12]", "value": 6, "unit": "%"},
      {"measurement": "inhibition", "setting": "[13]", "value": 3, "unit": "%"},
      {"measurement": "inhibition", "setting": "[14]", "value": -4, "unit": "%"},
      {"measurement": "inhibition", "setting": "[15]", "value": 3, "unit": "%"},
      {"measurement": "inhibition", "setting": "[16]", "value": 10, "unit": "%"},
      {"measurement": "inhibition", "setting": "[17]", "value": 1, "unit": "%"},
      {"measurement": "inhibition", "setting": "[18]", "value": 41, "unit": "%"},
      {"measurement": "inhibition", "setting": "[19]", "value": 5, "unit": "%"},
      {"measurement": "inhibition", "setting": "Homo sapiens [20]", "value": 5, "unit": "%"},
      {"measurement": "inhibition", "setting": "Homo sapiens [21]", "value": -10, "unit": "%"},
      {"measurement": "inhibition", "setting": "Homo sapiens [22]", "value": 18, "unit": "%"},
      {"measurement": "inhibition", "setting": "Homo sapiens [23]", "value": 5, "unit": "%"},
      {"measurement": "inhibition", "setting": "Homo sapiens [24]", "value": 43, "unit": "%"},
      {"measurement": "inhibition", "setting": "Homo sapiens [25]", "value": 28, "unit": "%"},
      {"measurement": "inhibition", "setting": "[26]", "value": 10, "unit": "%"},
      {"measurement": "inhibition", "setting": "Homo sapiens [27]", "value": 11, "unit": "%"},
      {"measurement": "inhibition", "setting": "Caspase-3 (Homo sapiens)", "value": 2, "unit": "%"},
      {"measurement": "inhibition", "setting": "[28]", "value": -4, "unit": "%"},
      {"measurement": "inhibition", "setting": "[29]", "value": 15, "unit": "%"},
      {"measurement": "inhibition", "setting": "[30]", "value": 0, "unit": "%"},
      {"measurement": "inhibition", "setting": "[31]", "value": -6, "unit": "%"},
      {"measurement": "inhibition", "setting": "[32]", "value": 13, "unit": "%"},
      {"measurement": "inhibition", "setting": "[33]", "value": -9, "unit": "%"},
      {"measurement": "inhibition at 10 µM", "setting": "[34]", "value": 4, "unit": "%"},
      {"measurement": "inhibition", "setting": "Homo sapiens [35]", "value": 5, "unit": "%"},
      {"measurement": "IC50", "setting": "[36]", "value": 1300, "unit": "nM"},
      {"measurement": "IC50", "setting": "[37]", "value": 8100, "unit": "nM"},
      {"measurement": "deltaT", "setting": "[38]", "value": 4, "unit": "°C"}
    ]}
  ]
}
